Here are results for 3 compounds from patent US20040022861A1, “Process for production of nanoparticles and microparticles by spray freezing into liquid” (priority 2001, published 2004).

One data set in a line: Dissolution study. In kind it is physicochemical. From the text: “FeSSIF” means fed state simulated intestinal fluid prepared by a recipe known in the art. This media is used to simulate gastrointestinal conditions. FeSSIF is the dissolution media that the powders produced in the following examples are dispersed into to quantitate the amount of drug dissolved as a function of time.
(§1) Ethyl acetate/water or dichloromethane/water mixtures were used to produce o/w emulsions for SFL micronization, and a tetrahydrofuran/water mixture was used to formulate the feed solutions. Micronized SFL powders were characterized by x-ray diffraction, surface area, scanning and transmission electron microscopy, contact angle and dissolution (SLS 0.75%/Tris 1.21% media).

Data set [1] in a line: Particle size distribution of dry powders (time-of-flight). In kind it is physicochemical. As to the method:
(§2) An aliquot of 0.1 g bovine insulin was dissolved in 20 ml HCl (pH=2), the solution was then titrated by 0.1 N NaOH to pH 7.4. The feed solution was then atomized using an ISCO pump by spray freezing into liquid nitrogen. The nozzle used was polyetheretherketone tubing with a diameter of 63.5 μm. The flow rate was 14 ml/min at 4000 psi. The frozen particles were collected and dried in a tray lyophilizer.
The span index is used to described the polydispersity in a given particle size distribution and is defined as (D90-D10)/D50, where D10, D50, and D90 are the respective particle size at 10, 50, 90 percent cumulative percent undersize.

The nature of data set [2]: BET specific surface area. In kind it is physicochemical. The source says:
The microparticles obtained were discrete and compact with almost spherical shape. […] The protein/polymer ratio has a strong effect on the entrapment efficiency and loading degree of the incorporated protein. The entrapment efficiency was high for all investigated biodegradable polymers. High polymer concentration yielded high entrapment efficiency for all observed biodegradable polymers and is illustrated at FIG. 6. Scanning Electron Micrographs (SEM) were taken of microparticles prepared by the following conditions: […] An adsorption isotherm derived by S. Brunaure, P. H. Emmett, and E.

Data set [3] can be described thus: Contact angle against dissolution media (SLS/Tris). Format: physicochemical.
Text: as §1

For data set [4] the following is noted: cited from earlier work.
Data set [5] is described as follows: Insulin aggregation: covalent insulin dimer (size exclusion HPLC). In kind it is physicochemical. The settings on record: for percentage of covalent insulin dimer in the samples: stored at −4° C. Here is the method: as §2, with “lyophilizer. The resulting particles were highly porous. […] The SFL process decreased the level of covalent insulin dimer (Table 3). The mean particle size diameter as determined by time-of-flight measurement was 5.06 microns. SEM photographs reveal that the particle is an aggregate composed of small domains of insulin.” for “lyophilizer.”
(§3) The SFL insulin powder was prepared according to the procedure outlined in Example 1 with same formulation. The SFL insulin powder was stored at −4° C. The samples were taken out at 6, 12 and 24 weeks.
(§4) The products were characterized by different techniques. […] The median aerodynamic particle size was 5.06 μm.
For orientation: SEC sorts molecules by how far they enter the pores of the column.

Data set [6] can be described thus: Chemical stability of insulin: A-21 desamido insulin level (RP-HPLC). Conditions: for percentage of A-21 desamido in the samples: stored at −4° C. In kind it is physicochemical. As to the method:
as §2, with “lyophilizer. The resulting particles were highly porous. […] The SFL process decreased the level of covalent insulin dimer (Table 3). The mean particle size diameter as determined by time-of-flight measurement was 5.06 microns. SEM photographs reveal that the particle is an aggregate composed of small domains of insulin.” for “lyophilizer.”
as §3, §4

In brackets after ≈: the same amount, converted by molar mass.

Turning to `C#C[C@]1(O)CC[C@H]2[C@@H]3CCC4=Cc5oncc5C[C@]4(C)[C@H]3CC[C@@]21C` [Danazol], the danazol dissolved is recorded as 21% in the data set “Dissolution study” (FeSSIF media, 60 minutes); “Approximately 53%” in the data set “Dissolution study” (SLS 0.75%/Tris 1.21% media, 5 minutes); “about 88%” in the data set “Dissolution study” (SLS 0.75%/Tris 1.21% media, 60 minutes). Besides, the “M 10(μm)” value in data set [1] (dry powders, Table 14) was 7.28 μm. In addition, in data set [1] (dry powders, Table 14), the “M 90(μm)” value is 51.78 μm. Further, the “M 50(μm)” value in data set [1] (dry powders, Table 14 and text Example 30) is reported as 23.10 μm. For the same compound, the “BET specific surface area” value in data set [2] (Examples 4, 5, 8) was 0.52 m2/g. Further, the “Specific Surface Area (m^2/g)” value in data set [2] (Table 14 and text Example 30) came out at 0.52 m^2/g. In addition, the “Average Contact Angle (S.D.)” value is recorded as 64.3 (1.1)^2 ° in data set [3] (listed as Bulk Danazol) and 64.3 ° in data set [3] (listed as bulk micronized danazol).

What is called aqueous solubility is the dissolved amount per volume that the medium holds. Turning to `NC(=O)N1c2ccccc2C=Cc2ccccc21` [CBZ, carbamazepine], the “CBZ dissolved in water” value in the data set “Dissolution study” (water, within 10 minutes) is on record as “about 4%”. The “Span Index” value in data set [1] ((D90-D10)/D50) is listed as 2.94. In data set [1] (time-of-flight, Table 10), the “D10 (μm)” value stood at 15.56 μm, the “D50 (μm)” value is 39.70 μm and the “D90 (μm)” value worked out at 132.33 μm. In addition, in data set [1] (time-of-flight, text Example 8), the mean particle diameter is 39.70 μm. Also, in data set [4], the aqueous solubility was 0.061 mg/mL (≈ 258 µM).

As to bovine insulin [Bulk insulin], the “Covalent Insulin Dimer (percent)” value in data set [5] (Table 3) was 0.25%. Further, the figures for the “percentage of covalent insulin dimer in the samples” value in data set [5] (12 weeks), in data set [5] (24 weeks) and in data set [5] (Initial) were 1.18 percentage, 1.15 percentage and 0.5 percentage, respectively. Besides, the “Mean Particle Size (μm)” value in data set [1] (Table 3) was determined as 14.24 μm. For the same compound, the “A-21 desamido insulin (percent)” value in data set [6] (Table 3) is listed as 3.03%. Further, the results for the “percentage of A-21 desamido in the samples” value in data set [6] (12 weeks), in data set [6] (24 weeks) and in data set [6] (Initial) were 2.61 percentage, 2.72 percentage and 2.46 percentage, respectively.
